The results in this text go back to patent publication US7671069B2, “Tricyclic, heteroaromatic compounds modulating CXCR4 and/ or CXCR7” (ChemoCentryx, Inc., priority 2006, dated 2010).

Structures are written as SMILES.

One experiment deals with T1, CXCR4 (Homo sapiens, UniProt P61073).
T1 construct: endogenous in cells; host or cells: CEM-Nkr, CCRF-CEM (ATCC #CCL-119), Jurkat (ATCC #TIB-152), Molt-4 (ATCC# CRL-1582); IL-2 stimulated lymphocytes from human blood
Nature of the experiment: Inhibition of SDF-1 ligand binding or chemotaxis assay for CXCR4. The conditions noted are these: first (or only) activity listed in CXCR4/CXCR7; chemotaxis assay or binding assays. On the procedure: CEM-Nkr, CCRF-CEM (ATCC #CCL-119), Jurkat (ATCC #TIB-152), Molt-4 (ATCC# CRL-1 582), cell lines, all endogenously expressing CXCR4, were used in compound screening and subsequent assays. These cell lines were cultured as a suspension in RPMI-1640 medium supplemented with 2 mM L-glutamine, 1.5 g/L sodium bicarbonate, 4.5 g/L glucose, 10 mM HEPES, 1 mM sodium pyruvate, and 10% FBS. Cells were grown under 5% CO2/95% air, 100% humidity at 37° C. and subcultured twice weekly at 1:6 (cells were cultured at a density range of 1×10^5 to 2×10^6 cells/mL) and harvested at 1×10^6 cells/mL.
Il-2 stimulated lymphocytes were isolated from fresh human blood using density separation and centrifigation. Briefly, whole blood is incubated with equal parts 3% dextran and allowed to separate for 45 minutes. After separation, the top layer is then layered on top of 15 mls of Ficoll (15 mls of Ficoll for every 30 mls of blood suspension) and centrifuged for 30 minutes at 400×g with no brake. The pellet at the bottom of the tube is then isolated and resuspended into PharmLyse RBC Lysis Buffer (BD Biosciences, San Jose, Calif.) after which the sample is again centrifuged for 10 minutes at 400×g with brake. The remaining cell pellet is resuspended as appropriate and stimulated with PHA for 2 days, followed by culturing in the presence of human IL-2 cytokine.
Cells were centrifuged and resuspended in assay buffer (20 mM HEPES pH 7.1, 140 mM NaCl, 1 mM CaCl2, 5 mM MgCl2, and with 0.2% bovine serum albumin) to a concentration of 4×10^6 cells/mL for cell lines. Binding assays were set up as follows. 0.15 mL of cells (6×10^5 cells/well) was added to the assay plates containing the compounds, giving a final concentration of ˜2-10 μM each compound for screening (or part of a dose response for compound IC50 determinations). Then 0.1 mL of ^125I labeled SDF-1α (obtained from Perkin Elmer Life Sciences, Boston, Mass.) diluted in assay buffer to a final concentration of ˜[…], yielding ˜30,000 cpm per well, was added, the plates sealed and incubated for approximately 3 hours at 4° C. on a shaker platform. Reactions were aspirated onto GF/B glass filters pre-soaked in 0.3% polyethyleneimine (PEI) solution, on a vacuum cell harvester (Packard Instruments; Meriden, Conn.). Scintillation fluid (40 μl; Microscint 20, Packard Instruments) was added to each well, the plates were sealed and radioactivity measured in a Topcount scintillation counter (Packard Instruments). Control wells containing either diluent only (for total counts) or excess SDF1a (1 μg/mL, for non-specific binding) were used to calculate the percent of total inhibition for compound. The computer program Prism from Graph Pad, Inc. (San Diego, Calif.) was used to calculate IC50 values. IC50 values are those concentrations required to reduce the binding of radiolabeled SDF-1α to the receptor by 50%. (For further descriptions of ligand binding and other functional assays, see Dairaghi, et al., J. Biol. Chem. 274:21569-21574 (1999), Penfold, et al., Proc. Natl. Acad. Sci. USA. 96:9839-9844 (1999), and Dairaghi, et al,. J. Biol. Chem. 272:28206-28209 (1997)).
Chemotaxis assays were performed using 5 μm pore polycarbonate, polyvinylpyrrolidone-coated filters in 96-well chemotaxis chambers (Neuroprobe; Gaithersburg, Md.) using chemotaxis buffer (Hank's balanced salt solution (HBSS) and 1% FBS). CXCR4 ligand (i.e., SDF1a, R&D Systems; Minneapolis, Minn.) are use to evaluate compound mediated inhibition of CXCR4 mediated migration. Other chemokines (i.e., TECK; R&D Systems; Minneapolis, Minn.) are used as specificity controls. The lower chamber was loaded with 29 μl of chemokine (i.e., 0.1 nM SDF1a); the top chamber contained 50,000 Jurkat cells or IL-2 lymphocytes in 20 μl. […]

Another experiment has as its target T2, CCXCKR2 (CXCR7) (Homo sapiens, UniProt P25106).
T2 construct: expressed in transfected cells; host or cells: MDA-MB-435S transfected with pcDNA3.1(+)-hRDC1 (G418 selected) and/or MCF-7 (endogenous receptor)
The experiment is described as follows: Displacement of 125I SDF-1 from CCXCKR2 (CXCR7) on MCF-7 and/or MDA-MB-435S cells. Format: binding. Conditions: second activity CXCR4/CXCR7. How it is done:
The ability of the compounds to displace the labeled chemokine from the CCXCKR2 receptor sites at multiple concentrations was then determined with the screening process.
Reagents and Cells. […] SDF-1 was purchased from Perkin-Elmer Life Sciences, Inc. (Boston, Mass.). The MCF-7 (adenocarcinoma; mammary gland) cell line was obtained from the American Type Culture Collection (Manassas, Va.) or and was cultured in DMEM (Mediatech, Herudon, Va.) supplemented with 10% fetal bovine serum (FBS) (HyClone Logan, Utah) and bovine insulin (0.01 mg/mL) (Sigma, St. Louis, Mo.) at 37° C. in a humidified incubator at a 5% CO2/air mixture. CCXCKR2 transfected MDA-MB-435S were produced as described below. MDA-MB-435S human breast cancer line, was purchased from ATCC, and cultured in DMEM/10% FBS medium. The complete coding sequence of the gene encoding CCXCKR2 (a.k.a.CXCR7, hRDC1), was isolated from MCF-7 cells using μMACs mRNA isolation kit (Miltenyi Biotec, Auburn, Calif.). DNA contamination was removed by DNase digestion via RNeasy columns (Qiagen, Inc., Valencia, Calif.) and cDNA was generated using GeneAmp RNA PCR Core Kit (Applied Biosystems, Foster City, Clif.). PCR of cDNA samples was performed using Taq PCR Master Mix kit (Qiagen, Inc.) and hRDC1 primers harboring 5′ and 3′ Not I sites (hRDC1F 5′ […]-3′ (SEO ID NO:11), hRDC1R 5′-[…]-3′ (SEO ID NO: 12)) Not I digested PCR product was ligated into Not I digested pcDNA3.1 (+)(Invitrogen, Carlsbad, Calif.) and screened for orientation and sequence confirmed. Plasmid DNA was then isolated from overnight bacterial cultures by Maxiprep (Qiagen, Inc.). Plasmid DNA (10μg) was added to MDA-MB-435s cells and cells were electroporated (0.22 kV, 960uF) via Gene Pulser (Biorad laboratories, Hercules, Calif.). 48 hr post-electroporation, cells were transferred to selection medium (1000 ug/ml G418).
Binding Analysis. Target compounds were tested to determine their ability to bind with CCXCKR2 sites on MCF-7 and/or MDA-MB-435S cells. Efficiency-maximized radioligand binding using filtration protocols as described in Dairaghi D J, et al., HHV8-encoded vMIP-I selectively engages chemokine receptor CCR5. Agonist and antagonist profiles of viral chemokines, J. Biol. Chem. Jul. 30, 1999; 274(31): 21569-74 and Gosling J, et al., Cutting edge: identification of a novel chemokine receptor that binds dendritic cell-i and T cell-active chemokines including ELC, SLC, and TECK., J. Immunol. Mar. 15, 2000; 164(6):2851-6 was used.
In these assays, MCF-7 and/or MDA-MB-435S cells were interrogated with the target compounds and the ability of these compounds to displace ^125I radiolabeled SDF-1 was assessed using the protocol described in Dairaghi and Gosling. The target compounds were added to the plate to the indicated concentration and were then incubated with cells followed by the addition of radiolabeled chemokine (^125I SDF-1) for 3 hr at 4° C. in the following binding medium (25 mM HEPES, 140 mM NaCl, 1 mM CaCl2, 5 mM MgCl2 and 0.2% bovine serum albumin, adjusted to pH 7.1). All assays were then incubated for 3 hrs at 4° C. with gentle agitation. Following incubation in all binding assays, reactions were aspirated onto PEI-treated GF/B glass filters (Packard) using a cell harvester (Packard) and washed twice (25 mM HEPES, 500 mM NaCl, 1 mM CaCl2, 5 mM MgCl2, adjusted to pH 7.1). Scintillant (MicroScint 10, Packard) was added to the wells, and the filters were counted in a Packard Topcount scintillation counter. Data were analyzed and plotted using Prism (GraphPad Prism version 3.0a for Macintosh, GraphPad Software, www.graphpad.com).
(Displacement assays read how much labelled ligand stays bound in the presence of the test substance.)

T1 sequence (P61073 whole entry): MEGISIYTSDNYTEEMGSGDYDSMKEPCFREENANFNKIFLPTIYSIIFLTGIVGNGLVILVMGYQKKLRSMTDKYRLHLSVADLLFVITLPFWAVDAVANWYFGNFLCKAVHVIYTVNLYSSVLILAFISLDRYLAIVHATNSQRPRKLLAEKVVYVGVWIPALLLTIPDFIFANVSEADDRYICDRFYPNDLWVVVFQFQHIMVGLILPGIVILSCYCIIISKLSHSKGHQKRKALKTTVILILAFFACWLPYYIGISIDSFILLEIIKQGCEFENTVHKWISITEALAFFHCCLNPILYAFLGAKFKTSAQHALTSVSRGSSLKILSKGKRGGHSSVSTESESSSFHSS
T2 sequence (P25106 whole entry): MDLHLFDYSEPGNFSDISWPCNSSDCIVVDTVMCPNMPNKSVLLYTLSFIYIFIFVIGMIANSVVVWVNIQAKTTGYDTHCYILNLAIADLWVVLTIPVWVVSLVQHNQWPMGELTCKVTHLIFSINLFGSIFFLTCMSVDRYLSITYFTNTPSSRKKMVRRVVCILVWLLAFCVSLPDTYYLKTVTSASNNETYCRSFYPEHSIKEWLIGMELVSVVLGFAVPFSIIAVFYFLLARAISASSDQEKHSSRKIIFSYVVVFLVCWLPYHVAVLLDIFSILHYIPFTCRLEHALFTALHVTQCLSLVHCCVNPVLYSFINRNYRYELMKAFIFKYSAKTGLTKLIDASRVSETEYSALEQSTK

Usually IC50 stands for the point on the concentration scale where inhibition reaches its midpoint. As for `COc1ccc2c(c1)c1c(cnn1CC(=O)NCCN1CCCC3CCCCC31)c(=O)n2C` (centres unmarked) [Compound 13], the IC50 on CXCR4 and at CCXCKR2 (CXCR7) was below 1 µM throughout.
With `COc1ccc2c(c1)c1c(cnn1CC(=O)NCCN(C)C1CCCCC1)c(=O)n2C` [Compound 30], the IC50 on CXCR4 is 1 to 10 µM; on CCXCKR2 (CXCR7), below 1 µM.
For the compound `Cc1ccc2c(c1)-c1c(cnn1CC(=O)NCCN(C)C1CCCCC1)CO2` [Compound 2], the IC50 on CXCR4 is 1 to 10 µM; on CCXCKR2 (CXCR7), below 1 µM.
In the same order, the values of `Cc1ccc2oc(=O)c3cnn(CC(=O)NCCN(C)C4CCCCC4)c3c2c1` [Compound 1] are 1 to 10 µM and below 1 µM.
In the same order, the values of `COc1ccc2c(c1)c1c(cnn1CC(=O)NCCNC1CCCCC1)c(=O)n2C` [Compound 31] are above 10 µM and below 1 µM.
In the same order, the values of `COc1ccc2c(c1)c1c(cnn1CC(=O)NCCN(C)C1CCCCCCC1)c(=O)n2C` [Compound 32] are 1 to 10 µM and below 1 µM.
In the case of `COc1ccc2oc(=O)c3cnn(CC(=O)NCCN(C)C4CCCCC4)c3c2c1` [Compound 24], the IC50 at CXCR4 and on CCXCKR2 (CXCR7) was below 1 µM throughout.
